Measured values taken from ChEMBL document CHEMBL1201862, “PubChem BioAssay data set” (2004).
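Step 1: Grow cells in 96-well plates. Step 2: Expose to compound for 48 hours at 5 concentrations. Step 3: Interpolate endpoints linearly; if unreached, use highest concentration. GI50 is the concentration that inhibits growth by half.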 Calls of active or inactive are those of the source. Cut-off read from the data, not from the text of the source: active = GI50 up to about 1.1 µM and inactive = higher.

Assays:
Test in all cases: DTP human tumour cell line panel, 48 h
A498 = test system: A498
BT-549 = test system: BT-549
COLO 205 = test system: COLO 205
HCT-15 = test system: HCT-15
HT-29 = test system: HT-29
KM12 = test system: KM12
Malme-3M = test system: Malme-3M
PC-3 = test system: PC-3
RPMI-8226 = test system: RPMI-8226
SF-295 = test system: SF-295
SK-MEL-28 = test system: SK-MEL-28
SK-MEL-5 = test system: SK-MEL-5
SNB-19 = test system: SNB-19
SNB-75 = test system: SNB-75
SW-620 = test system: SW-620
T47D = test system: T47D
U-251 = test system: U-251
UACC-257 = test system: UACC-257
UO-31 = test system: UO-31

Structure (SMILES) | GI50 (A498) | GI50 (BT-549) | GI50 (COLO 205) | GI50 (HCT-15) [µM] | GI50 (HT-29) | GI50 (KM12) | GI50 (Malme-3M) | GI50 (PC-3) | GI50 (RPMI-8226) | GI50 (SF-295) | GI50 (SK-MEL-28) | GI50 (SK-MEL-5) | GI50 (SNB-19) | GI50 (SNB-75) | GI50 (SW-620) | GI50 (T47D) | GI50 (U-251) | GI50 (UACC-257) | GI50 (UO-31)
Cc1cc(Cc2cc(Cc3cc(C)cc(C(C)(C)C)c3O)c(C)cc2C)c(O)c(C(C)(C)C)c1 | 16.1 µM (inactive) | 17.5 µM (inactive) | 19.5 µM (inactive) | 17.4 | 18.6 µM (inactive) | 16.6 µM (inactive) | 12.5 µM (inactive) | > 100 µM (inactive) | 20 µM (inactive) | 18.9 µM (inactive) | 18 µM (inactive) | 16.6 µM (inactive) | 17.2 µM (inactive) | 11.2 µM (inactive) | 17.9 µM (inactive) | 14 µM (inactive) | > 100 µM (inactive) | 16.2 µM (inactive) | 18.1 µM (inactive)
c1cc(C2N3CCCN2CC3)ccn1 (stereo not given) | > 100 µM (inactive) | > 100 µM (inactive) | > 100 µM (inactive) | > 100 | > 100 µM (inactive) | > 100 µM (inactive) | 21.9 µM (inactive) | > 100 µM (inactive) | 24.1 µM (inactive) | > 100 µM (inactive) | > 100 µM (inactive) | 48.2 µM (inactive) | > 100 µM (inactive) | > 100 µM (inactive) | 41.8 µM (inactive) | > 100 µM (inactive) | 58.3 µM (inactive) | > 100 µM (inactive) | > 100 µM (inactive)
O=C1SC(c2ccc(Cl)cc2)(c2ccc(Cl)cc2)c2ccccc21 | > 100 µM (inactive) | > 100 µM (inactive) | 83 µM (inactive) | 34.8 | 38.5 µM (inactive) | 66.7 µM (inactive) | > 100 µM (inactive) | 40.4 µM (inactive) | 55.8 µM (inactive) | 97.5 µM (inactive) | > 100 µM (inactive) | 52.8 µM (inactive) | > 100 µM (inactive) | > 100 µM (inactive) | > 100 µM (inactive) | 69 µM (inactive) | > 100 µM (inactive) | 34.3 µM (inactive) | 76.6 µM (inactive)
CC(Oc1ccccc1Cl)C(=O)NN1C(=O)CSC1c1ccc(Cl)cc1 (stereo not given) | 19.8 µM (inactive) | 21.3 µM (inactive) | 19.6 µM (inactive) | 19.5 | 19.8 µM (inactive) | 18.1 µM (inactive) | 27 µM (inactive) | 18.9 µM (inactive) | 17.9 µM (inactive) | 18.5 µM (inactive) | 23 µM (inactive) | 17.6 µM (inactive) | 21.7 µM (inactive) | 22.9 µM (inactive) | 23.4 µM (inactive) | 20.1 µM (inactive) | 17.8 µM (inactive) | 23.6 µM (inactive) | 35.1 µM (inactive)
CCOc1ccc(NCC2CC/C(=C\C=C\c3ccccc3)C2=O)cc1 (stereo not given) | 28.6 µM (inactive) | 15.2 µM (inactive) | 13.7 µM (inactive) | 5.41 | 13.5 µM (inactive) | 6.07 µM (inactive) | 22 µM (inactive) | 23.6 µM (inactive) | 10.9 µM (inactive) | 26.5 µM (inactive) | 16.4 µM (inactive) | 16 µM (inactive) | 24 µM (inactive) | 23.2 µM (inactive) | 5.83 µM (inactive) | 17.3 µM (inactive) | 18.8 µM (inactive) | 18.5 µM (inactive) | 26.6 µM (inactive)
Cc1ccc2c(c1)C(=O)c1nc(C)ccc1C2=O | 59.3 µM (inactive) | 53.7 µM (inactive) | 17.3 µM (inactive) | 22.6 | 17 µM (inactive) | 23.3 µM (inactive) | 4.95 µM (inactive) | 35.2 µM (inactive) | 21.3 µM (inactive) | 38.1 µM (inactive) | 50.7 µM (inactive) | 6.9 µM (inactive) | 22.4 µM (inactive) | 29.8 µM (inactive) | 33.5 µM (inactive) | 38.3 µM (inactive) | 35.5 µM (inactive) | 23.6 µM (inactive) | 26.4 µM (inactive)
CC(C(=O)N1c2ccccc2Sc2ccccc21)N1c2ccccc2Sc2ccccc21 (stereo not given) | 31.8 µM (inactive) | > 100 µM (inactive) | 85.7 µM (inactive) | > 100 | 72.3 µM (inactive) | 72.1 µM (inactive) | > 100 µM (inactive) | 97.5 µM (inactive) | > 100 µM (inactive) | 98.4 µM (inactive) | > 100 µM (inactive) | 57.5 µM (inactive) | > 100 µM (inactive) | 96.4 µM (inactive) | > 100 µM (inactive) | 46.1 µM (inactive) | 60 µM (inactive) | > 100 µM (inactive) | 70.1 µM (inactive)
O=CN1CCC23CC(O)CCC2C1Cc1cc(Oc2nnnn2-c2ccccc2)cc(O)c13 (stereo not given) | 68.4 µM (inactive) | 51.9 µM (inactive) | 32.9 µM (inactive) | 80 | 59.4 µM (inactive) | 57.9 µM (inactive) | > 100 µM (inactive) | > 100 µM (inactive) | 93.3 µM (inactive) | > 100 µM (inactive) | > 100 µM (inactive) | 47.2 µM (inactive) | > 100 µM (inactive) | > 100 µM (inactive) | > 100 µM (inactive) | 79.1 µM (inactive) | > 100 µM (inactive) | > 100 µM (inactive) | 85.3 µM (inactive)
CCN1CCC(CNC(=O)c2ccc(N)cc2)N1CC (stereo not given) | > 100 µM (inactive) | > 100 µM (inactive) | > 100 µM (inactive) | > 100 | > 100 µM (inactive) | > 100 µM (inactive) | > 100 µM (inactive) | > 100 µM (inactive) | > 100 µM (inactive) | > 100 µM (inactive) | > 100 µM (inactive) | > 100 µM (inactive) | > 100 µM (inactive) | > 100 µM (inactive) | > 100 µM (inactive) | > 100 µM (inactive) | > 100 µM (inactive) | > 100 µM (inactive) | > 100 µM (inactive)
COCOC1/C=C/CCCC#C[C@H](C)C(=O)CC1 (stereo not given in full) | 12.1 µM (inactive) | 12.6 µM (inactive) | 5.45 µM (inactive) | 8.57 | 3.69 µM (inactive) | 4.85 µM (inactive) | 6.68 µM (inactive) | 8.69 µM (inactive) | 2.21 µM (inactive) | 16.3 µM (inactive) | 15.2 µM (inactive) | 8.77 µM (inactive) | 17.9 µM (inactive) | 11.1 µM (inactive) | 2.71 µM (inactive) | 9.04 µM (inactive) | 12.2 µM (inactive) | 6.05 µM (inactive) | 14.8 µM (inactive)
CCCCc1ccc(Nc2nc(Cl)c3ccn(C4CC(Oc5ccc(C)cc5)C(COc5ccc(C)cc5)O4)c3n2)cc1 (stereo not given) | > 46.5 µM (inactive) | 12.6 µM (inactive) | > 46.5 µM (inactive) | > 46.5 | > 46.5 µM (inactive) | > 46.5 µM (inactive) | 26.7 µM (inactive) | > 100 µM (inactive) | > 46.5 µM (inactive) | > 46.5 µM (inactive) | > 100 µM (inactive) | > 46.5 µM (inactive) | 25.9 µM (inactive) | > 83.2 µM (inactive) | > 46.5 µM (inactive) | > 46.5 µM (inactive) | > 46.5 µM (inactive) | 25.9 µM (inactive) | 25.6 µM (inactive)
CC(N)C(C)Cc1ccccc1 (stereo not given) | > 100 µM (inactive) | > 100 µM (inactive) | > 100 µM (inactive) | > 100 | > 100 µM (inactive) | > 100 µM (inactive) | > 100 µM (inactive) | > 100 µM (inactive) | > 100 µM (inactive) | > 100 µM (inactive) | > 100 µM (inactive) | > 100 µM (inactive) | > 100 µM (inactive) | > 100 µM (inactive) | > 100 µM (inactive) | > 100 µM (inactive) | > 100 µM (inactive) | > 100 µM (inactive) | > 100 µM (inactive)
Cc1ccc(S(=O)(=O)N/N=C2/CCC(C(C)(C)C)CC2Br)cc1 (stereo not given) | 48.6 µM (inactive) | 32.1 µM (inactive) | 27.2 µM (inactive) | 34 | 29.4 µM (inactive) | 20.8 µM (inactive) | 16.3 µM (inactive) | 25.6 µM (inactive) | 28.4 µM (inactive) | 34.5 µM (inactive) | 19.6 µM (inactive) | 15.5 µM (inactive) | 36.6 µM (inactive) | 27.4 µM (inactive) | 23.9 µM (inactive) | 27.4 µM (inactive) | 8.24 µM (inactive) | 23 µM (inactive) | 17.2 µM (inactive)
CN(C)CCNC(=O)c1ccc(NCCCN(C)CCCNc2ccc(C(=O)NCCN(C)C)c3nc4ccccc4c(O)c23)c2c(O)c3ccccc3nc12 | 0.13 µM (active) | 0.254 µM (active) | < 0.0109 µM (active) | 0.486 | < 0.01 µM (active) | < 0.0116 µM (active) | < 0.0153 µM (active) | < 0.01 µM (active) | < 0.01 µM (active) | 0.0442 µM (active) | 0.161 µM (active) | 0.158 µM (active) | < 0.01 µM (active) | < 0.01 µM (active) | 0.0171 µM (active) | 0.171 µM (active) | < 0.01 µM (active) | 0.185 µM (active) | 0.326 µM (active)
Cc1cc(NCc2ccccc2)c2ccccc2[n+]1CCCCCCCCCC[n+]1c(C)cc(NCc2ccccc2)c2ccccc21.[O-][Cl+3]([O-])([O-])[O-].[O-][Cl+3]([O-])([O-])[O-] | 0.883 µM (active) | 0.569 µM (active) | 0.236 µM (active) | 1.89 | 0.345 µM (active) | 0.191 µM (active) | 4.06 µM (inactive) | 0.458 µM (active) | 0.124 µM (active) | 0.391 µM (active) | 0.71 µM (active) | 0.171 µM (active) | 0.252 µM (active) | 0.205 µM (active) | 0.752 µM (active) | 0.321 µM (active) | 0.0964 µM (active) | 0.274 µM (active) | 1.86 µM (inactive)
